Assay results: PMC11740094, “Design and synthesis of cyclic lipidated peptides derived from the C-terminus of Cx43 for hemichannel inhibition and cardiac endothelium targeting” (RSC Medicinal Chemistry, 2024)
Where two headings read alike, the source gives them in different places. Residues, ends and D or L forms follow the SMILES beside them. *: point of attachment. Palmitoyl = CCCCCCCCCCCCCCCC(=O)*

Assays:
[1] = test system: parental HeLa cells (no endogenous connexins); test: ATP release assay in parental HeLa cells (selectivity); format: cell-based, human; settings: calcium-free conditions, N = 3
Text: (§1) Two cell types were chosen to assess the specificity of the Cx43 analogues. HeLa cells derived from human cervical cancer are the oldest and most commonly used immortalized cells. These cells are so-called communication-incompetent, i.e. known to not endogenously express connexins,[71] while SK-HEP-1 cells, a human liver sinusoid endothelial cell line, are devoid of Cx43 but express a small amount of Cx45.[72] Together with these parental cells, HeLa cells and SK-HEP-1 cells stably transfected with Cx43 were used (HeLa–Cx43 (ref. [73]) and SK-HEP-1–Cx43,[72] respectively). The presence and absence of Cx43 in the different cell lines were confirmed by Western blotting (Fig. 8a). The specificity of the control peptides Gap27, TAT-Gap19, αCT1 as well as the cyclic analogue 11 for Cx43 HCs was assessed through ATP release measurements in these pairs of cells, and is shown in Fig. 8b (and Table S4 ^†) for parental and HeLa–Cx43 cells and in Fig. 8c (and Table S5 ^†) for parental and SK-HEP-1–Cx43 cells. No induction of ATP release was observed when parental HeLa cells were exposed to calcium-free conditions. […] However, a doubling of ATP release was observed when parental SK-HEP-1 cells were exposed to calcium-free conditions, which was attenuated by the treatment with Cbx and all peptides, indicating an effect of the compounds on Cx45 HC. […] Nonetheless, the cardioprotective properties of αCT1 are generally ascribed to its interaction with the Cx43 protein,[23] thus it is reasonable to assume that these properties will be retained by the proteolytically stable 10 peptide.
(§2) ATP release assays were performed using previously described methods.[60] Briefly, B16-BL6 cells, HeLa cells or SK-HEP-1 cells were seeded into 96-well plates and grown until they reached confluence. […] The cells were then washed with calcium-free HBSS and incubated with aforementioned compounds in calcium-free HBSS for 30 minutes. Supernatants were collected and ATP bioluminescence measurements were performed using an ATP bioluminescence kit (Sigma-Aldrich) according to the manufacturer's instructions. ATP release under each condition was expressed as the percentage of calcium-free-induced ATP release. ATP release of cells incubated with HBSS was used as a control for basal ATP release. Triplicates were performed for each independent experiment.

[2] = biological target: T1, Cx43 HCs (HeLa–Cx43 cells) (Homo sapiens, UniProt P17302); test: ATP release assay in HeLa–Cx43 transfectants (selectivity); format: cell-based; settings: for ATP release, mean (Table S4, Fig. 8b), HeLa-Cx43: calcium-free conditions, N = 3
T1 construct: expressed in transfected cells
Text: as §1, §2

[3] = biological target: T2, Cx45 HC (parental SK-HEP-1 cells, devoid of Cx43) (Homo sapiens, UniProt P36383); test: ATP release assay in parental SK-HEP-1 cells (selectivity); format: cell-based; settings: calcium-free conditions, N = 3
T2 construct: are devoid of Cx43 but express a small amount of Cx45; endogenous in cells; host or cells: parental SK-HEP-1 cells
Text: as §1, §2

[4] = test system: Cx43 HCs (SK-HEP-1–Cx43 cells); test: ATP release assay in SK-HEP-1–Cx43 transfectants (selectivity); format: cell-based, human; settings: calcium-free conditions, N = 3
Text: as §1, §2

cardiac endothelium = settings: binding to markers on the cell surface of the cardiac endothelium; cited from earlier work
Text: To further increase the therapeutic potential of a drug candidate, targeted delivery to the organ or tissue of interest after systemic treatment is highly desirable. The use of homing peptides, i.e. peptides that selectively bind to markers expressed on the surface of different cell types, can increase the specificity and efficacy of drug delivery, while reducing the side effects linked to off-target interactions. A wide variety of peptides homing to different tissues and pathological conditions has been identified, mostly through phage-display techniques, and used as delivery vehicles for dru ...

Cx43 HC = settings: cited from earlier work
Experimental: The inhibitory capacity of the peptides on connexin HC activity was determined in vitro by measuring ATP release triggered by a depletion of extracellular Ca^2+, hereafter called “calcium-free” condition.[60] The assays were performed on B16-BL6 cells, a murine melanoma cell line endogenously expressing Cx43.[61] To measure ATP release, B16-BL6 cells were rinsed with a physiological Hanks' balanced salt solution (HBSS; control) followed by incubation for 5 minutes in HBSS containing the peptides. After rinsing with calcium-free HBSS (Ca-free), the cells were incubated with Ca-free containing t ...

[5] = set-up: method as in PMID 34063001; settings: mouse serum; cited from earlier work
physchem = format: physicochemical; settings: water
[6] = biological target: T3, Cx43 HCs (B16-BL6 cells endogenously expressing Cx43) (Mus musculus, UniProt P23242); test: ATP release assay in B16-BL6 cells, hemichannels opened by calcium depletion; format: cell-based, murine
T3 construct: a murine melanoma cell line endogenously expressing Cx43; endogenous in cells; host or cells: B16-BL6 mouse melanoma cells
Experimental: The inhibitory capacity of the peptides on connexin HC activity was determined in vitro by measuring ATP release triggered by a depletion of extracellular Ca^2+, hereafter called “calcium-free” condition.[60] The assays were performed on B16-BL6 cells, a murine melanoma cell line endogenously expressing Cx43.[61] To measure ATP release, B16-BL6 cells were rinsed with a physiological Hanks' balanced salt solution (HBSS; control) followed by incubation for 5 minutes in HBSS containing the peptides. After rinsing with calcium-free HBSS (Ca-free), the cells were incubated with Ca-free containing the peptides for 30 minutes. Positive and negative control conditions included 30 minute incubation with HBSS, Ca-free without peptides or Ca-free containing 25 μM of the non-selective small-molecule inhibitor Cbx. ATP release in the supernatant was measured by bioluminescence. In order to determine the optimal concentration of peptides to be used in the assays, an initial round of testing was conducted on the control peptides αCT1, Gap27,[62]Gap19 (ref. [15]) and TAT-Gap19 (ref. [15]) as well as Cbx.[63] A doubling of ATP release was observed 30 minutes after the switch to the calcium-free solution, indicating effective Cx43 HC channel opening under these conditions (Fig. 5a and Table S1 ^†). As expected, the nonspecific connexin HC inhibitor Cbx (25 μM) reduced calcium-free-induced ATP release to nearly control conditions. At a high concentration (100 μM), Gap19, Gap27 and αCT1 had minimal to no effect on ATP release while TAT-Gap19 had the opposite effect inducing the release of ATP to a similar extent as the detergent Triton X-100 (1%). This might be due to the presence of the CPP motif, causing some disturbance at the level of the cellular membrane, and correlated with the previous findings on the use of the peptide at high concentrations.[64,65] […]
ATP release assays were performed using previously described methods.[60] […] ATP release under each condition was expressed as the percentage of calcium-free-induced ATP release. […]

[7] = peptide applied extracellularly, read-out: IC50 on Cx43-mediated ATP release

T3 sequence (P23242 whole entry): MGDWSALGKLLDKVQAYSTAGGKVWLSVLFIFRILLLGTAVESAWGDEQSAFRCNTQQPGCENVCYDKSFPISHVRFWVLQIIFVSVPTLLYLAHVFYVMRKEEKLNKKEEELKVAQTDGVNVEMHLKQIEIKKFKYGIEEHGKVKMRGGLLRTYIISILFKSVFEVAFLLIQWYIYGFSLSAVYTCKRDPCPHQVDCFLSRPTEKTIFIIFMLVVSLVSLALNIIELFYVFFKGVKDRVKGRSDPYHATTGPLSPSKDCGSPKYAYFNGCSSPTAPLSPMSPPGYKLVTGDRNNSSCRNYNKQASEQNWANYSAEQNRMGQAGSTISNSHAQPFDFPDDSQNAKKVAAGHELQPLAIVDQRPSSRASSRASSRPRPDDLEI
T2 sequence (P36383 whole entry): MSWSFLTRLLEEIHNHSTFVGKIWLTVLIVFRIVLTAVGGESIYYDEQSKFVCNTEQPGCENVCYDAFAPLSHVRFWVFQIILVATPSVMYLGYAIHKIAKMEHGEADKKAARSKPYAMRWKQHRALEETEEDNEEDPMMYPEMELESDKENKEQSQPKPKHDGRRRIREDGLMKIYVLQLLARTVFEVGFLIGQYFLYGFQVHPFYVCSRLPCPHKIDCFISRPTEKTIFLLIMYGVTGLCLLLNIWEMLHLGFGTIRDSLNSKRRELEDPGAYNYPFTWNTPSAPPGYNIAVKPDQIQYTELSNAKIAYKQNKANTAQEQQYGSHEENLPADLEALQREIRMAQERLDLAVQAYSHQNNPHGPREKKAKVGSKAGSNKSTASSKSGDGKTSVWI
T1 sequence (P17302 whole entry): as the sequence (P23242 whole entry) above, with E124D, V164I, R243K, T251S, P253A, S257A, P263Q, S341N, A344S, V347L counted along it

Molecule | reduction of calcium-free-induced ATP release in HeLa–Cx43 cells ([2]; peptide 5 μM) | ATP release, mean (Table S4, Fig. 8b), HeLa-Cx43 ([2]; peptide 5 μM) | ATP release, mean (Table S5, Fig. 8c), Parental SK-HEP-1 ([3]; peptide 5 μM) | ATP release, mean (Table S4, Fig. 8b), Parental HeLa ([1]; peptide 5 μM) | ATP release, mean (Table S5, Fig. 8c), SK-HEP-1-Cx43 ([4]; peptide 5 μM) | further results
CRPPR [cardiac endothelium-homing pentapeptide] |  |  |  |  |  | selectivity of targeting the heart (cardiac endothelium): > 300 fold
CC[C@H](C)[C@H](NC(=O)[C@H](CCC(=O)O)NC(=O)[C@@H](NC(=O)[C@H](CCC(N)=O)NC(=O)[C@@H](N)CCCCN)[C@@H](C)CC)C(=O)N[C@@H](CCCCN)C(=O)N[C@@H](CCCCN)C(=O)N[C@@H](Cc1ccccc1)C(=O)N[C@@H](CCCCN)C(=O)O [Gap19, H-KQIEIKKFK-OH] (H-KQIEIKKFK-OH) |  |  |  |  |  | IC50 (Cx43 HC; intracellular application via whole-cell recording pipette, read-out: IC50 when applied intracellularly via a whole-cell recording pipette): 7 µM; IC50 (Cx43 HC; [7]): ~50 µM
H-RPRPDDLEI-OH [αCT11] |  |  |  |  |  | time in which the peptide was found to be degraded [5]: 30 min
CCCCCCCCCCCCCCCC(=O)N[C@@H](CCCCN)C(=O)N[C@@H](CCC(N)=O)C(=O)N[C@H](C(=O)N[C@@H](CCC(=O)O)C(=O)N[C@H](C(=O)N[C@@H](CCCCN)C(=O)N[C@@H](CCCCN)C(=O)N[C@@H](Cc1ccccc1)C(=O)N[C@@H](CCCCN)C(=O)O)[C@@H](C)CC)[C@@H](C)CC [Palm-Gap19] (Palmitoyl-KQIEIKKFK-OH) |  |  |  |  |  | solubility (physchem): ≥ 100 µM
CC1(C)[C@@H](OC(=O)CCC(=O)O)CC[C@]2(C)[C@H]3C(=O)C=C4[C@@H]5C[C@@](C)(C(=O)O)CC[C@]5(C)CC[C@@]4(C)[C@]3(C)CC[C@@H]12 [Cbx, carbenoxolone] |  |  |  |  |  | ATP release, mean normalized to calcium-free condition (Table S2, Fig. 5b) ([6]; Cbx 25 μM, calcium-free 30 min, N = 3–9): 60.4766%; ATP release, mean normalized to calcium-free condition (Table S3, Fig. 6b) ([6]; Cbx 25 μM, calcium-free 30 min, N = 5–10): 78.1965%; ATP release, mean (Table S4, Fig. 8b), Parental HeLa ([1]; Cbx 25 μM): 0.9207 nM; inhibition of calcium-free-induced ATP release in HeLa–Cx43 cells (in words) ([2]; Cbx 25 μM): completely inhibited; ATP release, mean (Table S4, Fig. 8b), HeLa-Cx43 ([2]; Cbx 25 μM): 2.1867 nM; ATP release, mean (Table S5, Fig. 8c), Parental SK-HEP-1 ([3]; Cbx 25 μM): 13.9931 nM; ATP release, mean (Table S5, Fig. 8c), SK-HEP-1-Cx43 ([4]; Cbx 25 μM): 26.4826 nM
Triton X-100 |  |  |  |  |  | ATP release, mean normalized to calcium-free condition (Table S1, Fig. 5a) ([6]; Triton X-100 1%, cell lysis control, N = 3–9): 248.6069%
CC[C@H](C)[C@H](NC(=O)[C@H](CCC(=O)O)NC(=O)[C@@H](NC(=O)[C@H](CCC(N)=O)NC(=O)[C@H](CCCCN)NC(=O)[C@H](CCCNC(=N)N)NC(=O)[C@H](CCCNC(=N)N)NC(=O)[C@H](CCCNC(=N)N)NC(=O)[C@H](CCC(N)=O)NC(=O)[C@H](CCCNC(=N)N)NC(=O)[C@H](CCCNC(=N)N)NC(=O)[C@H](CCCCN)NC(=O)[C@H](CCCCN)NC(=O)[C@H](CCCNC(=N)N)NC(=O)CNC(=O)[C@@H](N)Cc1ccc(O)cc1)[C@@H](C)CC)C(=O)N[C@@H](CCCCN)C(=O)N[C@@H](CCCCN)C(=O)N[C@@H](Cc1ccccc1)C(=O)N[C@@H](CCCCN)C(=O)O [TAT-Gap19] (H-YGRKKRRQRRRKQIEIKKFK-OH) | 40–45% | 10.9629 nM | 15.3639 nM | 1.3701 nM | 55.5511 nM | IC50 (Cx43 HC; [7]): 7 µM

More lines, main results first:

reduction of calcium-free-induced ATP release in HeLa–Cx43 cells ([2]; peptide 5 μM) | ATP release, mean (Table S4, Fig. 8b), HeLa-Cx43 ([2]; peptide 5 μM) | ATP release, mean (Table S5, Fig. 8c), Parental SK-HEP-1 ([3]; peptide 5 μM) | Molecule | ATP release, mean (Table S4, Fig. 8b), Parental HeLa ([1]; peptide 5 μM) | ATP release, mean (Table S5, Fig. 8c), SK-HEP-1-Cx43 ([4]; peptide 5 μM) | further results
40–45% | 9.3690 nM | 8.5784 nM | CC[C@H](C)[C@H](NC(=O)[C@@H](NC(=O)[C@H](Cc1ccccc1)NC(=O)[C@@H](NC(=O)[C@@H](NC(=O)[C@H](CCCCN)NC(=O)[C@H](CCC(=O)O)NC(=O)[C@@H](NC(=O)[C@@H]1CCCN1C(=O)[C@H](CCCNC(=N)N)NC(=O)[C@@H](N)CO)[C@@H](C)O)[C@@H](C)O)[C@@H](C)CC)[C@@H](C)CC)C(=O)O [Gap27] (H-SRPTEKTIFII-OH) | 0.9529 nM | 36.9304 nM | 
40–45% | 8.7419 nM | 7.9522 nM | CC(=O)N[C@@H](CO)C(=O)N[C@@H](CCCNC(=N)N)C(=O)N1CCC[C@H]1C(=O)N[C@@H](CCCNC(=N)N)C(=O)N1C[C@@H]2C[C@H]1C(=O)N[C@@H](CC(=O)O)C(=O)N[C@@H](CC(=O)O)C(=O)N[C@@H](CC(C)C)C(=O)N[C@@H](CCC(=O)O)C(=O)N[C@H](C(N)=O)Cc1cn2nn1 [compound 11] | 1.5371 nM | 38.4712 nM | 
40–45% | 9.6282 nM | 6.6804 nM | H-RQPKIWFPNRRKPWKKRPRPDDLEI-OH [αCT1] | 1.6218 nM | 39.5655 nM | 
